The values below come from ChEMBL document CHEMBL1150922, “A new photosystem II electron transfer inhibitor from Sorghum bicolor” (J Nat Prod, 1998).

Calls of active or inactive are those of the source. The rule behind the calls is not given here.

For test [1], the system named is Lactuca sativa. Kind of test: Phytotoxicity against lettuce seedlings assessed as inhibition of seed germination at 0.1 mM after 4 days. It counts as functional, organism-based.
Test [2] deals with Lactuca sativa. Kind of test: Phytotoxicity against lettuce seedlings assessed as inhibition of seed germination at >0.3 mM after 4 days. Format: functional, organism-based.
Test [3] can be described thus: Inhibition of photosystem 2 in spinach thylakoid membranes assessed as oxygen evolution. It counts as cell membranes, Spinacia oleracea. Conditions: read-out: I50.
For test [4], the system named is Spinacia oleracea. Kind of test: Reduction in light-induced chlorophyll fluorescence half-life in spinach thylakoids membrane at 0.3 to 1 uM. Format: functional, cell membranes.

Consider `C=CC/C=C\C/C=C\CCCCCCCC1=C(OC)C(=O)C=C(OC)C1=O`, for which, in test [1], the outcome was inactive. Further, the outcome in test [2] and in test [4] was Active. Further, in test [3], the IC50 is 280 nM.
With `C=CC/C=C\C/C=C\CCCCCCCC1=C(O)C(=O)C=C(OCC)C1=O`, the outcome in test [1] was inactive. Besides, the result in test [2] and in test [4] was Active. Further, the IC50 in test [3] was 1070 nM.
With `CCNc1nc(Cl)nc(NC(C)C)n1` [ATRAZINE], the outcome in test [1] was inactive. Moreover, the result in test [2] and in test [4] was Active. Moreover, in test [3], the IC50 was found to be 930 nM.
Consider `C=CC/C=C\C/C=C\CCCCCCCC1=C(O)C(=O)C=C(OC)C1=O` [SORGOLEONE], for which, in test [1], the result was inactive. Further, the outcome in test [2] and in test [4] was Active. Further, the IC50 in test [3] is 100 nM.
